Assay in all cases: inhibition of tumour cell growth, NCI panel, 48 h
Assay [1] has as its system SF-268.
For assay [2], the system named is SNB-75.
The subject of assay [3] is SW-620.
Assay [4] relates to UACC-62.
The test system of assay [5] is HOP-92.
Assay [6] relates to ACHN.
Assay [7] relates to HL-60.
Assay [8] deals with OVCAR-3.
Assay [9] relates to MOLT-4.
The subject of assay [10] is CCRF-CEM.
Assay [11] relates to KM12.
Assay [12] has as its system RXF 393.
For assay [13], the system named is NCI-H522.
Assay [14] relates to U-251.
For assay [15], the system named is 786-0.
In assay [16] the test system is COLO 205.
The test system of assay [17] is Malme-3M.
Assay [18] has as its system RPMI-8226.

Each structure is given as a SMILES string.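 Tested at 5 concentrations; 48 h exposure; 96-well plates; endpoints linearly interpolated, else capped at highest concentration. The concentration for 50% growth inhibition is given as GI50.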 Activity calls are given as the source filed them. Cut-off read from the data, not from the text of the source: active = GI50 up to about 1.1 µM and inactive = higher. Some results are limits rather than exact numbers.

As for `COC1=CC23C=CC1[C@@H](c1ccccc1)C2=C(C)C(=O)N3C(=O)NC1CCCCC1` (stereo partly drawn), the GI50 in assay [1] was 15.8 µM (inactive); in assay [2] it was 3.78 µM (inactive); in assay [3] it was 19.5 µM (inactive); in assay [4], 26.5 µM (inactive); in assay [5] it was 19 µM (inactive); in [6], 30.9 µM (inactive). For the same compound, the GI50 in assay [7] was 21 µM (inactive); in assay [8] it was 24.2 µM (inactive); in assay [9], 18 µM (inactive); in assay [10], 25.7 µM (inactive); in [11] it was 31.3 µM (inactive); in [12], 3.45 µM (inactive). In addition, the GI50 in [13] is 18.9 µM (inactive); in assay [14] it was 16.5 µM (inactive); in [15], 15.5 µM (inactive).

As for `CC1=NN(C(=O)Cc2ccccc2)C(=O)/C1=C\C=C\c1ccccc1`, the GI50 in assay [1], in [2], in assay [3], in assay [6], in assay [7] and in assay [16] was > 100 µM (inactive) in each case. For the same compound, the GI50 in [8], in [9], in assay [10], in [11], in [17] and in [13] was > 100 µM (inactive) in each case. Moreover, the GI50 in assay [18] and in [15] was > 100 µM (inactive) throughout.

Take `CS(=O)(=O)c1ccc(C(=O)O[C@@H]2C(=O)N3CC[C@H]4OC(O)[C@@H]2[C@H]43)cc1` (stereo partly drawn): the GI50 is > 100 µM (inactive) in assay [1]; 58.1 µM (inactive) in [2]; > 100 µM (inactive) in [3]; > 100 µM (inactive) in assay [4]; > 100 µM (inactive) in [6]; > 100 µM (inactive) in assay [16]. In addition, the GI50 in assay [8], in [9], in [11], in [12], in assay [14] and in [18] was > 100 µM (inactive) in each case. In assay [15], the GI50 was 60.7 µM (inactive).

Regarding `COc1ccc(S(=O)(=O)N/N=C/c2cc(I)cc([N+](=O)[O-])c2O)cc1OC`, the GI50 in assay [3] is 47.8 µM (inactive); in [4], 25.8 µM (inactive); in assay [5], 19.1 µM (inactive); in assay [6], 30.4 µM (inactive); in assay [7], 23 µM (inactive); in assay [16], 50.9 µM (inactive). Also, the GI50 in [8] was 24.5 µM (inactive); in assay [9], 24.8 µM (inactive); in assay [10], 34.4 µM (inactive); in assay [11], 31.3 µM (inactive); in assay [17], 28.7 µM (inactive); in assay [14], 32.7 µM (inactive). Besides, the GI50 in assay [18] is 24 µM (inactive); in assay [15] it was 45.9 µM (inactive).

For the compound `COC(=O)[C@@H](NC1(c2ccccc2)c2ccccc2-c2ccccc21)[C@H](OC(=O)[C@H]1CCCN1S(=O)(=O)c1ccccc1)C(=O)OC`, the GI50 in assay [1] was > 100 µM (inactive); in [2], 63.2 µM (inactive); in assay [3], > 100 µM (inactive); in [4], > 100 µM (inactive); in [5] it was < 0.01 µM (active); in assay [6], > 100 µM (inactive). Moreover, the GI50 in [7], in assay [16], in assay [8], in assay [9], in [10] and in assay [11] was > 100 µM (inactive) each time. For the same compound, the GI50 in assay [12] was > 100 µM (inactive); in [17] it was > 100 µM (inactive); in assay [13] it was 82.2 µM (inactive); in [14], > 100 µM (inactive); in [15], > 100 µM (inactive).

These data come from ChEMBL document CHEMBL1201862, “PubChem BioAssay data set” (2004).
